Reference: ChEMBL document CHEMBL1201862, “PubChem BioAssay data set” (2004)
Active and inactive are the calls of the source.

Experiments:
Assay type in all cases: functional
[1] = target: Dual specificity protein kinase CLK2 (Homo sapiens, UniProt P49760)
[2] = target: Tyrosine-protein kinase JAK2 (Homo sapiens, UniProt O60674);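 also: JAK2 tested as one member of a kinase panel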
[3] = target: 5'-AMP-activated protein kinase catalytic subunit alpha-1 (Homo sapiens, UniProt Q13131)
[4] = target: ALK tyrosine kinase receptor (Homo sapiens, UniProt Q9UM73);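 also: ALK tested as one member of a kinase panel screen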
[5] = target: T1, Serine/threonine-protein kinase D3 (Homo sapiens, UniProt O94806);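 also: determined within a kinase panel screen, with PRKCN as the panel member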
T1 sequence (O94806 whole entry): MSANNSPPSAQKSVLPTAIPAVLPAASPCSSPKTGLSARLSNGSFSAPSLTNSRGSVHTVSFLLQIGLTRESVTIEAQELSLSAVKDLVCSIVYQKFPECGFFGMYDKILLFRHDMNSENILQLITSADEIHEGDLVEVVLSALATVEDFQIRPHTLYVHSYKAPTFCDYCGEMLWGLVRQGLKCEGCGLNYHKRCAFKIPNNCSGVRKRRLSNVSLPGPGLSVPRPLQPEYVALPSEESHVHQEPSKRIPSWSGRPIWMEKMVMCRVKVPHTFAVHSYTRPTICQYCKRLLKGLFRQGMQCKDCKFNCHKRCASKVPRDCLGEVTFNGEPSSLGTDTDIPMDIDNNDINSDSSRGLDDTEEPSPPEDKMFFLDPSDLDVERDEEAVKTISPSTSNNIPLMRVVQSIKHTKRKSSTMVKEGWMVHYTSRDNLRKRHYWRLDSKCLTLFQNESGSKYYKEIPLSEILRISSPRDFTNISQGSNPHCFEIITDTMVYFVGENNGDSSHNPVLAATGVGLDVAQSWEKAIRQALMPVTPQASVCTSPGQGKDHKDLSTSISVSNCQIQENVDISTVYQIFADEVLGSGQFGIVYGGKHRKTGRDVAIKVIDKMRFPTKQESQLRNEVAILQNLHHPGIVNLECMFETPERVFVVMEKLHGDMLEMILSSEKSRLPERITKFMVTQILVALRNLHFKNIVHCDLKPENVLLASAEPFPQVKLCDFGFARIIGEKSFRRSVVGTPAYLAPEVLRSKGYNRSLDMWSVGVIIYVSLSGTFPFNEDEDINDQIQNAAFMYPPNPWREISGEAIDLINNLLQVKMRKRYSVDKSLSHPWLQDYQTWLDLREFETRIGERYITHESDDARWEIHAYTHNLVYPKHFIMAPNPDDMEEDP

[6] = target: Death-associated protein kinase 3 (Homo sapiens, UniProt O43293);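 also: measured as one member of a kinome-wide profiling panel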
[7] = target: Mitogen-activated protein kinase 8 (Homo sapiens, UniProt P45983);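 also: value comes from one member of a kinome-wide kinase profiling panel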
[8] = target: Serine/threonine-protein kinase pim-1 (Homo sapiens, UniProt P11309)
[9] = target: Glycogen synthase kinase-3 alpha (Homo sapiens, UniProt P49840);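 also: GSK3A result taken from a broad kinome-wide kinase panel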
[10] = target: T2, Serine/threonine-protein kinase Chk1 (Homo sapiens, UniProt O14757);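 also: measured as one member of a kinome-wide kinase profiling panel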
T2 sequence (O14757 whole entry): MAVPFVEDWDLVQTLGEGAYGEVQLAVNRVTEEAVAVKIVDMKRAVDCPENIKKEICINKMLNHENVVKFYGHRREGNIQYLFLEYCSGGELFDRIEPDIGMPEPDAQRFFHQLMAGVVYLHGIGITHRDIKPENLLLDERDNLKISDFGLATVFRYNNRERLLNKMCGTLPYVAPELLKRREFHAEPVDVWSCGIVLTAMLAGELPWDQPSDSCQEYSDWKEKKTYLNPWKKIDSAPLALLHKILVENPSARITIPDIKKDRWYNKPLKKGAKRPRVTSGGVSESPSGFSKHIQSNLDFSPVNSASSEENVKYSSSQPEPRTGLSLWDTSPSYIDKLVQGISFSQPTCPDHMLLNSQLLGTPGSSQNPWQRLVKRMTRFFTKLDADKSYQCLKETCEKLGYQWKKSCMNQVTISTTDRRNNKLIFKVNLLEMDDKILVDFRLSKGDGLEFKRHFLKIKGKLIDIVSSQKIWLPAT

[11] = target: Vascular endothelial growth factor receptor 2 (Homo sapiens, UniProt P35968)
[12] = target: T3, cAMP-dependent protein kinase catalytic subunit PRKX (Homo sapiens, UniProt P51817)
T3 sequence (P51817 whole entry): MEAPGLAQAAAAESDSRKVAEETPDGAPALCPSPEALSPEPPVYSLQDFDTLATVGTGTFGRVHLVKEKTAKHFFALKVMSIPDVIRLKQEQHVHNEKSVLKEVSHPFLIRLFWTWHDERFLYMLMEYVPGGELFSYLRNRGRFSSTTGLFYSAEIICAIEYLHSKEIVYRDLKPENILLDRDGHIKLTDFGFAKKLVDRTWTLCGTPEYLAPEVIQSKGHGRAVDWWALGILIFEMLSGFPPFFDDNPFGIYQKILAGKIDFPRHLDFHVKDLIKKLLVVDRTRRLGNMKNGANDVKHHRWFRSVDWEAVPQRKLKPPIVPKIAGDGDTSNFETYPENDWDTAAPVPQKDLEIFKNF

Aurora kinase B = Aurora kinase B (Homo sapiens, UniProt Q96GD4)
[13] = target: Cyclin-dependent kinase 7 (Homo sapiens, UniProt P50613);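 also: value comes from a kinome-wide kinase profiling panel in which CDK7 is one member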
[14] = target: Vascular endothelial growth factor receptor 1 (Homo sapiens, UniProt P17948);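 also: measured within a kinome-wide profiling panel, FLT1 as the panel member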
[15] = target: Glycogen synthase kinase-3 beta (Homo sapiens, UniProt P49841);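 also: value comes from a broad kinome profiling panel, with GSK3B as the panel member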
[16] = target: cAMP-dependent protein kinase catalytic subunit alpha (Homo sapiens, UniProt P17612)
[17] = target: Mitogen-activated protein kinase kinase kinase kinase 4 (Homo sapiens, UniProt O95819)
[18] = target: Macrophage colony-stimulating factor 1 receptor (Homo sapiens, UniProt P07333);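 also: value comes from the Navigating the Kinome screening panel, CSF1R member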
[19] = target: Dual specificity tyrosine-phosphorylation-regulated kinase 1A (Homo sapiens, UniProt Q13627);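 also: measured against DYRK1A as one member of a broad kinome profiling panel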
[20] = target: Calcium/calmodulin-dependent protein kinase type II subunit alpha (Homo sapiens, UniProt Q9UQM7); assay: Navigating the Kinome. Panel member name: CAMK2A
[21] = target: Leukocyte tyrosine kinase receptor (Homo sapiens, UniProt P29376); assay: Navigating the Kinome. Panel member name: LTK

Chain of Dual specificity protein kinase CLK2 (P49760 whole entry): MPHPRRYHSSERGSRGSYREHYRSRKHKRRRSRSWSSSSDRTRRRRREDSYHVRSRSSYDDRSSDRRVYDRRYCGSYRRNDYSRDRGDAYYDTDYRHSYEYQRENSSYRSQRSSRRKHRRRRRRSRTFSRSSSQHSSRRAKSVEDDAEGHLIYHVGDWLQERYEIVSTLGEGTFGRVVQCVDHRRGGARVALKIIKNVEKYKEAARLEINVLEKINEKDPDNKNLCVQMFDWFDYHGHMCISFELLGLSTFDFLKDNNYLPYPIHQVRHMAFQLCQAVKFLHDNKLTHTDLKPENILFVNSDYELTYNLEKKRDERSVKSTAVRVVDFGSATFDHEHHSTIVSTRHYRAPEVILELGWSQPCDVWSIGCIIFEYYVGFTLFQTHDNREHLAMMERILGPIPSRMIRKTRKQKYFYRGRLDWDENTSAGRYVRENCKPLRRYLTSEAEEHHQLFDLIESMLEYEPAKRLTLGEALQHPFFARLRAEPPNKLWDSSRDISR
Chain of Cyclin-dependent kinase 7 (P50613 whole entry): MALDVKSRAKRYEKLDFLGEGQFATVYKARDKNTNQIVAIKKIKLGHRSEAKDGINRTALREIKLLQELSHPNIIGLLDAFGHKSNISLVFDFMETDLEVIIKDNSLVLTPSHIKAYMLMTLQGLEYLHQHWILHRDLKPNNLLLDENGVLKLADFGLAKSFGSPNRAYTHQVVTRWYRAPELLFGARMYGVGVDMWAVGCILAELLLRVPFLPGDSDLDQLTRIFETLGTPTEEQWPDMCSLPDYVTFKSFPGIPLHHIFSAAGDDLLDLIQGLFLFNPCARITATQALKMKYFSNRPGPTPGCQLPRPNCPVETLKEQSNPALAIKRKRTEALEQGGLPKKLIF
Chain of Calcium/calmodulin-dependent protein kinase type II subunit alpha (Q9UQM7 whole entry): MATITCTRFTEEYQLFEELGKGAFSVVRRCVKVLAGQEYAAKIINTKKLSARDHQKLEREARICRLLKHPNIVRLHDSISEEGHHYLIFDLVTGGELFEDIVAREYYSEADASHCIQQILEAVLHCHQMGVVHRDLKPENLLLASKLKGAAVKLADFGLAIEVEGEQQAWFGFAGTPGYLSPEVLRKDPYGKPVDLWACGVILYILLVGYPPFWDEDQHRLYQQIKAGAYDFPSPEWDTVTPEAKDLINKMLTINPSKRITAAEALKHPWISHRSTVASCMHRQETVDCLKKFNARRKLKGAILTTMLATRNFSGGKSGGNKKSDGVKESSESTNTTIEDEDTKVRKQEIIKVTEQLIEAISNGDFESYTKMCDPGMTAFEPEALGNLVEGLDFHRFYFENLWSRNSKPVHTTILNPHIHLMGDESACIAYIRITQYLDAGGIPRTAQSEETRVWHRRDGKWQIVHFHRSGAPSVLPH
Chain of ALK tyrosine kinase receptor (Q9UM73 whole entry): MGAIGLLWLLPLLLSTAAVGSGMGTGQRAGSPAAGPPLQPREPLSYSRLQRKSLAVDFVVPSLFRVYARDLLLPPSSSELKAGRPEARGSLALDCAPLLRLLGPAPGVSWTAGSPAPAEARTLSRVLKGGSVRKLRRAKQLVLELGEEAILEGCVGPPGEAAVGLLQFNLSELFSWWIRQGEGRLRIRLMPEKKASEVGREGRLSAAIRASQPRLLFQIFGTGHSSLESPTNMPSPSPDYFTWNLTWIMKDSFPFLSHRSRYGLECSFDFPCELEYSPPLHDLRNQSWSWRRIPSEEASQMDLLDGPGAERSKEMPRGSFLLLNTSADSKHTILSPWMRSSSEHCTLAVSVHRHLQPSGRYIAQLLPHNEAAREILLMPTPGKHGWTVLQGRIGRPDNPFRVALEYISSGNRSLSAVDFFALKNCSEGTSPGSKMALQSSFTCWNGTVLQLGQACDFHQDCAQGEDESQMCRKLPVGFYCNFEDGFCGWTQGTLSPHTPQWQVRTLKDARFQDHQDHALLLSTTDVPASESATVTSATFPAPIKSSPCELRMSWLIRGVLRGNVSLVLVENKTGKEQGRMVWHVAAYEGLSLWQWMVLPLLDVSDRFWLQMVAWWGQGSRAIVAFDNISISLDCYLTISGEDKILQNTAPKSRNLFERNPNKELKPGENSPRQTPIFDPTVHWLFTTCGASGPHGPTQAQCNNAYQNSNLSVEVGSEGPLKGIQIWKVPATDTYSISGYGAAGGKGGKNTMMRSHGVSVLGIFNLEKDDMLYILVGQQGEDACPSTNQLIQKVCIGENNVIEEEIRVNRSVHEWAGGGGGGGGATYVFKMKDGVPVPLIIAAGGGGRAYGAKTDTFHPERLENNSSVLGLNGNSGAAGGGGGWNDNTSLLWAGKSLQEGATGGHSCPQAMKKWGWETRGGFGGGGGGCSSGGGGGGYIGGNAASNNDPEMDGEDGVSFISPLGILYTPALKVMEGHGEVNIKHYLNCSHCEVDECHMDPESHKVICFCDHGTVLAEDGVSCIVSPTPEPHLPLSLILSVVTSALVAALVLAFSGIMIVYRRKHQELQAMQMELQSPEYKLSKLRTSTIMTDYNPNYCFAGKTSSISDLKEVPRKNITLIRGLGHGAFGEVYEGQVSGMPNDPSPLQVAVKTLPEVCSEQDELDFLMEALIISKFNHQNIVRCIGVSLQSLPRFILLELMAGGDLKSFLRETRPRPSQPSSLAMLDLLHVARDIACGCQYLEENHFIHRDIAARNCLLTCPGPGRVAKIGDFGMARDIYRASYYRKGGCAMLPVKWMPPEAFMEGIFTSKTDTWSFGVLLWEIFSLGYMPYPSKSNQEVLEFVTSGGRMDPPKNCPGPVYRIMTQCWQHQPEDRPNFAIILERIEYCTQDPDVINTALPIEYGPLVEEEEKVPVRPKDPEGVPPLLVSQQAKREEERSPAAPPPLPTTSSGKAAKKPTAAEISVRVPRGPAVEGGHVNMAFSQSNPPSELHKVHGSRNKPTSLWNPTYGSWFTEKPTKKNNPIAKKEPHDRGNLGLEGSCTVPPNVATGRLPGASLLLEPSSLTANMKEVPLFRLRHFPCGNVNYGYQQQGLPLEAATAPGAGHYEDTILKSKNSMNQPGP
Chain of Glycogen synthase kinase-3 beta (P49841 whole entry): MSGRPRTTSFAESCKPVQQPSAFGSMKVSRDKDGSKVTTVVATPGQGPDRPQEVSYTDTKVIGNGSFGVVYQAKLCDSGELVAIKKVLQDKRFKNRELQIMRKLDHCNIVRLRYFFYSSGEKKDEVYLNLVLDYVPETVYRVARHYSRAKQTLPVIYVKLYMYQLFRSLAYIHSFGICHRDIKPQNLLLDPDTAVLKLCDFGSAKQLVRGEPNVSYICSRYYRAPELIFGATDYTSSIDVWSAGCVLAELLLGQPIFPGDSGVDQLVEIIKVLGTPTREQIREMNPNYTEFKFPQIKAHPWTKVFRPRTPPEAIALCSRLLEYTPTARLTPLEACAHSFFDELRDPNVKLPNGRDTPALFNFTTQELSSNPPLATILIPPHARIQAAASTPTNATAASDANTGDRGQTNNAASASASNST
Chain of Vascular endothelial growth factor receptor 1 (P17948 whole entry): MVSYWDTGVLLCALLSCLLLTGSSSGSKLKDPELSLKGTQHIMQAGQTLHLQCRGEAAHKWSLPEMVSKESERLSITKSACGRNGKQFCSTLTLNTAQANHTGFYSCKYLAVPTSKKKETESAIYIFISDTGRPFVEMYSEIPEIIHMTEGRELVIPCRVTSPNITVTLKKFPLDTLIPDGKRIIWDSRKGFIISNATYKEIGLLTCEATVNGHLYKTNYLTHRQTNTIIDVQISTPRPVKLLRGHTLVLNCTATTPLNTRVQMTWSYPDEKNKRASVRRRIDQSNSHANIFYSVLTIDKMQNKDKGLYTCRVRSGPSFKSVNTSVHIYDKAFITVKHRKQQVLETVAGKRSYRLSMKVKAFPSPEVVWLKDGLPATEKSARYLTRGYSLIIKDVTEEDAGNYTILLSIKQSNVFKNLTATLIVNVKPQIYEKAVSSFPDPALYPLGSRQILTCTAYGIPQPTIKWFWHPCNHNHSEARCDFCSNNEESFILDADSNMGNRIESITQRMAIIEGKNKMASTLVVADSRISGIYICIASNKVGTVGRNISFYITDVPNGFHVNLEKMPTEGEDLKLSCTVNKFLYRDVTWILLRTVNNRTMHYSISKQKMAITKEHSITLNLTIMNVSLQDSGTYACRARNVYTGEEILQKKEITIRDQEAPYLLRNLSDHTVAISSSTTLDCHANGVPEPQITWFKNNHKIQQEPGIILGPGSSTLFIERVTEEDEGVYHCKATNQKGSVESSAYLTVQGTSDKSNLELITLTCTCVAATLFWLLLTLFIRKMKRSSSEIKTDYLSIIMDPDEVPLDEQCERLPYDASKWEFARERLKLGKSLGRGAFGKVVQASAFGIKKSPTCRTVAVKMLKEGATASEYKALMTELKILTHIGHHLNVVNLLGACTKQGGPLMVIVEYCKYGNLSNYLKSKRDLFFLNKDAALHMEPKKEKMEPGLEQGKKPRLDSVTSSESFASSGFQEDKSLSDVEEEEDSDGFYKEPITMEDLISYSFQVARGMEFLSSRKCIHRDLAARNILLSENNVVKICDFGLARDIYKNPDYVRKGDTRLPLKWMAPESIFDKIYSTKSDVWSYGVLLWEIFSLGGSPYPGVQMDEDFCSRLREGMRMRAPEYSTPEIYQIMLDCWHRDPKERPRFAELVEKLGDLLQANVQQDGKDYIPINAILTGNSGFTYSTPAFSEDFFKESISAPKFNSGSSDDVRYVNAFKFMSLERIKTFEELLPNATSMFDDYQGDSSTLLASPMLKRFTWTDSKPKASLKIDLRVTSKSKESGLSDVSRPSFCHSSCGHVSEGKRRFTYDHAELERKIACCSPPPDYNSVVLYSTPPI
Chain of Serine/threonine-protein kinase pim-1 (P11309 whole entry): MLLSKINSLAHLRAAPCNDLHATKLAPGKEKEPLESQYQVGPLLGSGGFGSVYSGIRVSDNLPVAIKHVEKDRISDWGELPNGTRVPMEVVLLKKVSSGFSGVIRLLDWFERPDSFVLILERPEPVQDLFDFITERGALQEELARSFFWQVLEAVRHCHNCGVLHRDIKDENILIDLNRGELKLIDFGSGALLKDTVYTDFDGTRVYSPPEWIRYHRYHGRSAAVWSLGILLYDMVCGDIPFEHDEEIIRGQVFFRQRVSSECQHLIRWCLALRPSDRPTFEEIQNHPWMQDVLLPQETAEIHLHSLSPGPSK

Ki [1] | Ki [2] | Ki [3] | Ki [4] | Ki [5] | Ki [7] | Ki [8] | Ki [9] | Ki [10] | Ki [11] | Ki [12] | Ki (Aurora kinase B) | Ki [13] | Ki [14] | Ki [15] | Ki [16] | Ki [17] | Ki [18] | Ki [19] | Structure (SMILES) | Ki [6] | also measured
0.00501 µM (active) | 0.251 µM (active) | 0.126 µM (active) | > 1.26 µM (inactive) | 0.00631 µM (active) | 0.1 µM (active) | 0.251 µM (active) | 0.158 µM (active) | 2 µM (active) | > 7.94 µM (inactive) | 0.00631 µM (active) | 2 µM (active) | 0.00398 µM (active) | > 0.398 µM (inactive) | 0.2 µM (active) | 0.0501 µM (active) | 0.0631 µM (active) | 0.1 µM (active) | 0.00316 µM (active) | NC1CCC(Nc2nccc(-c3c[nH]c4ncccc34)n2)CC1 (stereo not given) | 0.158 µM (active) | –
1 µM (active) | 25.1 µM (active) | 31.6 µM (active) | 79.4 µM (active) | 12.6 µM (active) | 12.6 µM (active) | 15.8 µM (active) | 2.51 µM (active) | 39.8 µM (active) | 7.94 µM (active) | 15.8 µM (active) | 20 µM (active) | 12.6 µM (active) | 25.1 µM (active) | 3.16 µM (active) | 5.01 µM (active) | 20 µM (active) | > 100 µM (inactive) | 0.398 µM (active) | OCc1cc(-c2ccc3[nH]ncc3c2)on1 | 3.98 µM (active) | Ki [20]: 79.4 µM (active); Ki [21]: 20 µM (active)
6.31 µM (active) | 31.6 µM (active) | 6.31 µM (active) | 79.4 µM (active) | 50.1 µM (active) | 20 µM (active) | 50.1 µM (active) | 12.6 µM (active) | 63.1 µM (active) | 39.8 µM (active) | 20 µM (active) | 31.6 µM (active) | 10 µM (active) | 79.4 µM (active) | 12.6 µM (active) | 10 µM (active) | 39.8 µM (active) | 39.8 µM (active) | 5.01 µM (active) | CC(C)(O)c1cn(-c2ccc3[nH]ncc3c2)nn1 | 2 µM (active) | Ki [20]: 63.1 µM (active); Ki [21]: 15.8 µM (active)

Structure (SMILES) | Ki [1] | Ki [2] | Ki [3] | Ki [4] | Ki [5] | Ki [7] | Ki [8] | Ki [9] | Ki [10] | Ki [11] | Ki [12] | Ki (Aurora kinase B) | Ki [13] | Ki [14] | Ki [15] | Ki [16] | Ki [17] | Ki [18] | Ki [19] | Ki [6] | also measured
COC(C(=O)N1Cc2[nH]nc(NC(=O)c3ccc(N4CCN(C)CC4)cc3)c2C1)c1ccccc1 (stereo not given) | – | – | – | – | – | – | – | – | – | – | > 2.51 µM (inactive) | – | – | 0.0398 µM (active) | – | – | – | 0.158 µM (active) | – | 0.794 µM (active) | Ki [20]: > 6.31 µM (inactive); Ki [21]: 0.0316 µM (active)
